Entries after “also recorded” stand apart in the source; their conditions may differ.
Tests used:
Corneal epithelial cells = assay: In vitro toxicity / cell morphology in corneal epithelial cells (Example 7); assay type: cell-based
Protocol: Corneal epithelial cells were cultured in vitro to about 30% confluence and treated with various dilutions of a 0.025 mg/mL spironolactone eye drop formulation (i.e. 50×, 100×, 500×, 1000×, and 5000×, corresponding to 0.0005 mg/ml, 0.00025 mg/ml, 0.00005 mg/ml, 0.000025 mg/ml, and 0.000005 mg/ml). The cell medium with spironolactone was changed every two days. On the seventh day, the cells were stained for lipids with Oil Red O.
Toxicity to cells was also taken into account. Toxicity in the context of this disclosure refers to any amount of cell death upon exposure to the composition. Little to no toxicity or relatively no toxicity refers to some amount of cell death to no cell death upon exposure to the composition. Alternatively or additionally, the morphology should look phenotypically normal for the cells. Toxicity can be measured quantitatively or qualitatively, in vivo or in vitro. Standard assays, such as an LDH (lactate dehydrogenase) assay, can be used to quantify toxicity of the compositions and to determine a TC50 concentration, i.e., a concentration that results in cell death for 50% of the cells upon exposure of the cells to that concentration. […] As such, a concentration of 0.025 mg/cc or lower appears to be safe. […] Compositions with lower amounts of active agent (e.g., 0.0000025 mg/cc) may be useful for maintaining a patient's condition, without subjecting the patient to long-term toxicity, for example, once the patient has been stabilized by treatment for some amount of time with a higher concentration.

ELOVL4 gene expression = assay: RT-PCR of ELOVL4 gene expression in HTCE cells (Example 9); assay type: cell-based, Human; conditions: 7th day; for ELOVL4 gene expression, induction: normalized
Protocol: HTCE cells were cultured in 6 well plates and grown to about 30% confluence. The cells were then treated with different dilutions of a 0.025 mg/ml Spironolactone eye drop formulation (i.e. 50×, 100×, 500×, 1000×, and 5000×, corresponding to 0.0005 mg/ml, 0.00025 mg/ml, 0.00005 mg/ml, 0.000025 mg/ml, and 0.000005 mg/ml). The medium with different concentrations of Spironolactone was changed every 2 days. On the 7th day, the cells were collected, and the RNA was extracted and subject to RT-PCR analysis for gene expression of ELOVL4, an enzyme involved in the biosynthesis of fatty acids (particularly very long chain fatty acids (VLCFAs)).

CC(=O)SC1CC2=CC(=O)CCC2(C)C2CCC3(C)C(CCC34CCC(=O)O4)C12 (stereo not drawn) [spironolactone, 7α-acetylthio-3-oxo-17α-pregn-4-ene-21,17-carbolactone]
in vitro toxicity (Corneal epithelial cells; 0.025 mg/ml): some in vitro toxicity | in vitro toxicity / cell morphology (Corneal epithelial cells; 100× dilution (0.00025 mg/ml)): non confluence and some relative toxicity | in vitro toxicity / cell morphology (Corneal epithelial cells; 500× dilution (0.00005 mg/ml)): confluent nontoxic cell morphology | in vitro toxicity / cell morphology (Corneal epithelial cells; 1000× dilution (0.000025 mg/ml)): no in vitro toxicity; also recorded: confluent nontoxic cell morphology | in vitro toxicity / cell morphology (Corneal epithelial cells; 5000× dilution (0.000005 mg/ml)): confluent nontoxic cell morphology | ELOVL4 gene expression, induction (ELOVL4 gene expression; 0.00025 mg/ml (100× dilution)): approximately 2 fold | ELOVL4 gene expression, induction (ELOVL4 gene expression; 0.0005 mg/ml (50× dilution)): approximately 4.5 fold | ELOVL4 gene expression (ELOVL4 gene expression; remaining treatment groups (0.00005, 0.000025, 0.000005 mg/ml)): no change relative to control
